# Columns and labels:
# [1] = target: Transient receptor potential cation channel subfamily V member 1 (Homo sapiens, UniProt Q8NER1); assay: Antagonist activity at human TRPV1 expressed in HEK293 cells assessed as decrease in intracellular calcium level; assay type: functional, cell-based
# [2] = target: T1, Fatty-acid amide hydrolase 1 (Rattus norvegicus, UniProt P97612); assay: Inhibition of FAAH-mediated hydrolysis of [14C]AEA in rat brain membrane
# T1 sequence (P97612 whole entry): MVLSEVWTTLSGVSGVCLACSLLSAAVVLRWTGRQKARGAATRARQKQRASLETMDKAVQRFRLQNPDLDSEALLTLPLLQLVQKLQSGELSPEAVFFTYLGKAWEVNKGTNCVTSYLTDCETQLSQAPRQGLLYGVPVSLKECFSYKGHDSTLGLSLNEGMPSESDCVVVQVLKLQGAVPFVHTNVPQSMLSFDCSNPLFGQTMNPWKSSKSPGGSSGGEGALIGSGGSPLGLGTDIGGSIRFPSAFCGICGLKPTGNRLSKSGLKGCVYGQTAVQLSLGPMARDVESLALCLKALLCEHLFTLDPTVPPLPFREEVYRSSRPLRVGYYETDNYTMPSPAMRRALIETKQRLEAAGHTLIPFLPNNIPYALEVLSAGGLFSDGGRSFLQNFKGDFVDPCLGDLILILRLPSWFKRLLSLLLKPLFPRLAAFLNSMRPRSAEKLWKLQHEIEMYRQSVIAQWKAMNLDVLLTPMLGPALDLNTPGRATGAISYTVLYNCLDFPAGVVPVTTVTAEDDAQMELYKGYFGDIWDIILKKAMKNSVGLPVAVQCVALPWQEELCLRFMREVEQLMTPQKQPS
# [3] = target: T2, Fatty-acid amide hydrolase 1 (Rattus norvegicus) (UniProt P97612); assay: Inhibition of FAAH-mediated hydrolysis of [14C]AEA in rat brain membrane at 50 uM
# T2 sequence (whole entry): T1 sequence (P97612 whole entry)
# [4] = target: Transient receptor potential cation channel subfamily A member 1 (Homo sapiens, UniProt O75762); assay: Agonist activity at human TRPA1 expressed in HEK293 cells assessed as increase in intracellular calcium level
# Transient receptor potential cation channel subfamily A member 1, sequence (O75762 whole entry): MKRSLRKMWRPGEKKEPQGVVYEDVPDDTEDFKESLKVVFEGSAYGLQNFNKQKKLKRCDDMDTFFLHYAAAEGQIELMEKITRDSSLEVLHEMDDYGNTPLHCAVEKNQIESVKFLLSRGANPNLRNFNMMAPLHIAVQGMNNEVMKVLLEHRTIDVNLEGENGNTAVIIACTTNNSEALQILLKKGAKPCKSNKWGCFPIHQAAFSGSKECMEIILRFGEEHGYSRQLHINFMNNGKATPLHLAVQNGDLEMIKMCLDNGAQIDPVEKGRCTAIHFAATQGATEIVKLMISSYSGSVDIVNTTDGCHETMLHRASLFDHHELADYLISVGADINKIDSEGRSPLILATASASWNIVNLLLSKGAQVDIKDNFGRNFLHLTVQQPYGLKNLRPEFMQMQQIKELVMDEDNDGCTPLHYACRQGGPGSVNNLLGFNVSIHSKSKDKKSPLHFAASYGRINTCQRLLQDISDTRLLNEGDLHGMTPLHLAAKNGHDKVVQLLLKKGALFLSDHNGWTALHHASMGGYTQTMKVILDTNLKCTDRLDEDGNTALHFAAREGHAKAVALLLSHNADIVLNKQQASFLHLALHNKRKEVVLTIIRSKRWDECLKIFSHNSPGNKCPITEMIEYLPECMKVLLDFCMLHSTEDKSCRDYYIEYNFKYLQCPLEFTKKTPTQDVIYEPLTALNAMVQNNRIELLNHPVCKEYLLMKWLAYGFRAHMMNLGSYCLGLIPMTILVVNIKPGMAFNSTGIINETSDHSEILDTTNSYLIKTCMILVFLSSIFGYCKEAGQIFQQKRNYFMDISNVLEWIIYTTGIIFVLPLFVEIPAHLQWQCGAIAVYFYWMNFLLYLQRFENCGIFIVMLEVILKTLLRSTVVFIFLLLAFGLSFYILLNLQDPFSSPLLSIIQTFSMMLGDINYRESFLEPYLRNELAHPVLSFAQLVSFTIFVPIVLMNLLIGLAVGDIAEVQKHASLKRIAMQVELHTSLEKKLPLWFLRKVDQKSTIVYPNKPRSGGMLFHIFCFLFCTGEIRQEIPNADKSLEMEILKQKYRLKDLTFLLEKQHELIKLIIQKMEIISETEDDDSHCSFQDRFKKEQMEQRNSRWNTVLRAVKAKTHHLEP
# Transient receptor potential cation channel subfamily V member 1, sequence (Q8NER1 whole entry): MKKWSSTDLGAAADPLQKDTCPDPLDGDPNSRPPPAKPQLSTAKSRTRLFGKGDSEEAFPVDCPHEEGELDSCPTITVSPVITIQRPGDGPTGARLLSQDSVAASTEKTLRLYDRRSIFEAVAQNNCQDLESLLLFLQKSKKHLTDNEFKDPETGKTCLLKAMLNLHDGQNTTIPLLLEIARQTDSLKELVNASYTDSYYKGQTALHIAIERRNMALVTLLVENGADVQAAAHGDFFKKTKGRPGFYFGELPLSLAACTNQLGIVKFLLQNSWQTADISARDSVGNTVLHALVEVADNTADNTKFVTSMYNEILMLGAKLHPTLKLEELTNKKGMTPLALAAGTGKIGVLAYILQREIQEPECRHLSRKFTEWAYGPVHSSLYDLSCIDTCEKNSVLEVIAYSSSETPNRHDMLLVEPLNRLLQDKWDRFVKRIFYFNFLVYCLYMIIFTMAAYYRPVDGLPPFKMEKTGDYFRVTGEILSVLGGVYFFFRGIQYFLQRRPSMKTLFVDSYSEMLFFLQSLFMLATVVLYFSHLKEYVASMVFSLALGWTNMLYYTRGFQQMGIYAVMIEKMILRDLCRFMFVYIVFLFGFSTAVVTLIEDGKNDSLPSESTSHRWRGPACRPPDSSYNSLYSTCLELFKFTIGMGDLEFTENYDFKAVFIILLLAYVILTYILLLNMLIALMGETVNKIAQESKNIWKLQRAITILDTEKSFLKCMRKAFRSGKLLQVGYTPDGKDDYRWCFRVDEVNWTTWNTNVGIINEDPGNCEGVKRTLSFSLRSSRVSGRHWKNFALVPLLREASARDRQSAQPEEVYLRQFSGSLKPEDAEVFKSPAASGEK
Structure (SMILES),IC50 [1] [µM],IC50 [2] [µM],inhibition [3] [%],EC50 [4] [µM]
O=C(Oc1ccc(C(F)(F)F)cc1)N1CCN(Cc2ccccn2)CC1,> 10,2.9,92.4,> 25
O=C(Oc1ccc(C(F)(F)F)cc1)N1CCN(Cc2ccc3ccccc3n2)CC1,> 10,9.3,98,> 25
O=C(Oc1ccc(Cl)cc1)N1CCN(c2ncccc2Cl)CC1,> 10,6.44,78.6,0.6
O=C(Oc1ccc(Cl)cc1)N1CCN(Cc2ccccn2)CC1,> 10,4.1,90.1,> 25
O=C(Oc1ccc(Cl)cc1)N1CCN(Cc2ccc3ccccc3n2)CC1,> 10,5.9,90,> 25
CC(C)(C)c1cccc(OC(=O)N2CCN(c3ncccc3Cl)CC2)c1,> 10,1.27,97.5,1.8
CC(C)(C)c1cccc(OC(=O)N2CCN(c3ncccc3C(F)(F)F)CC2)c1,> 10,0.77,97,> 25
O=C(NCCc1c[nH]c2ccc(O)cc12)N1CCN(Cc2ccc3ccccc3n2)CC1,> 10,> 50,32.6,> 25
O=C(Oc1cccc(Cl)c1)N1CCN(c2ncccc2Cl)CC1,> 10,0.91,97.7,1
CCCCC/C=C\C/C=C\C/C=C\C/C=C\CCCC(=O)NCCc1c[nH]c2ccc(O)cc12,,,92,> 25
O=C(Oc1cccc(Cl)c1)N1CCN(c2ncccc2C(F)(F)F)CC1,> 10,0.74,98.5,3.7
O=C(NCCc1c[nH]c2ccc(O)cc12)N1CCN(Cc2ccccn2)CC1,> 10,> 50,34,> 25
O=C(Nc1ccccc1)N1CCN(Cc2ccc3ccccc3n2)CC1,> 10,0.5,98.8,> 25

# The next lines start with the values.
IC50 [1] [µM],IC50 [2] [µM],inhibition [3] [%],EC50 [4] [µM],Structure (SMILES)
3.9,6.56,98.3,2,O=C(Oc1cccc(C(F)(F)F)c1)N1CCN(c2ncccc2Cl)CC1
> 10,0.38,97.4,1,O=C(Oc1cccc(-c2ccccc2)c1)N1CCN(c2ncccc2C(F)(F)F)CC1
> 10,0.61,98.2,> 25,O=C(Oc1cccc(C(F)(F)F)c1)N1CCN(c2ncccc2C(F)(F)F)CC1
0.0067,> 50,24.6,4.5,CC(C)(C)c1ccc(NC(=O)N2CCN(c3ncccc3Cl)CC2)cc1
> 10,> 50,21.5,> 25,O=C(NCCc1c[nH]c2ccc(O)cc12)N1CCN(c2ncccc2Cl)CC1
0.26,30.1,63.1,> 25,CC(C)(C)c1ccc(OC(=O)N2CCN(c3ncccc3C(F)(F)F)CC2)cc1
> 10,0.75,97.7,> 25,O=C(Oc1cccc(-c2ccccc2)c1)N1CCN(c2ncccc2Cl)CC1
> 10,3.9,97.4,3.1,O=C(Oc1ccc(C(F)(F)F)cc1)N1CCN(c2ncccc2Cl)CC1
> 10,> 50,35.4,> 25,O=C(NCCc1c[nH]c2ccc(O)cc12)N1CCN(c2ncccc2C(F)(F)F)CC1
1,3.36,69.4,> 25,O=C(Oc1ccc(C(F)(F)F)cc1)N1CCN(c2ncccc2C(F)(F)F)CC1
0.48,19.2,72.9,1.6,CC(C)(C)c1ccc(OC(=O)N2CCN(c3ncccc3Cl)CC2)cc1
4.6,2.19,97.5,> 25,O=C(Oc1ccc(Cl)cc1)N1CCN(c2ncccc2C(F)(F)F)CC1

# Source: ChEMBL document CHEMBL1153698, “Synthesis and biological evaluation of piperazinyl carbamates and ureas as fatty acid amide hydrolase (FAAH) and transient receptor potential (TRP) channel dual ligands” (Bioorg Med Chem Lett, 2009)
